{
  "source": "patent US8999365B2",
  "about": "“Prevention of bacterial contamination” (priority 2005, dated 2015)",
  "key": {"[1]": {"system": "Staphylococcus epidermidis", "assay": "Adhesion assay: total attached cells on delmopinol-coated discs", "conditions": "mean of Exp. I-III", "protocol": "The different materials were obtained as discs with an approximate diameter of 30 mm and a thickness of 1 mm. These discs were then mounted in the bottom of Petri dishes\n(§1) Procedure A: The test surfaces were treated with 2 mL of the 2% aqueous solution of delmopinol HCl and left unstirred for 15 minutes at room temperature. All delmopinol solution was removed with a pipette. The wells were then thoroughly rinsed three times with 4 mL of a potassium phosphate buffer, 10 mM, pH 7.2. […] Procedure B: The test surfaces were treated with 2 mL of the 2% aqueous solution of delmopinol HCl and left overnight to dry. Microorganisms\n(§2) A fresh bacterial strain of Staphylococcus epidermidis was isolated from skin and stored in milk powder at −80° C. The day before experimental use, bacteria were transferred to blood agar and incubated in an atmosphere of 95% H2 and 5% CO2 at 37° C. overnight. Colony-forming units were collected from the blood agar and suspended in 10 mM potassium phosphate buffer, pH 7.2, to an optical density at 600 nm of 0.4, corresponding to approximately 10^8 cells/mL.\nFour mL of the bacterial suspension was added on top of coated and non-coated test surfaces mounted in Petri dishes. […] A 10 μL-aliquot of the mixture was added to the surface and analysed after 10 min incubation in the dark. Microscopic images of adherent cells were analysed from 10 fields of each disc. […]"}, "[2]": {"system": "Staphylococcus epidermidis", "assay": "Growth of adherent bacteria on treated surfaces in Tryptic Yeast Extract medium", "format": "cell-based", "conditions": "for Growth after 1 day / Growth after 5 days: cell culture IV, Tryptic Yeast Extract medium, 37° C.", "experimental": "The ability of bacteria to grow on coated and non-coated surfaces was determined by adding 4 mL of Tryptic Yeast Extract medium to each well and incubating at 37° C."}, "[3]": {"system": "Staphylococcus epidermidis", "protocol": "as §1, §2\nThe bacterial viability of the bacterial suspension, indicated by the vitality percentages, was assessed by fluorescence microscopy using the Live/Dead Bacterial Viability method Molecular Probes, Inc. Eugene, Oreg., USA) according to the instructions of the manufacturer. Thus, SYTO 9 (1.5 μL) and propidium iodide (1.5 μL) were mixed with 1 mL of 10 mM phosphate buffer, pH 7.2. Aliquots of 10 μL were added to 10 μL cell suspension and analysed at 1000× for green/LIVE and red/DEAD cells in the fluorescence microscope (Leitz Aristoplan microscope equipped with a halogen lamp and a 470-490 nm excitation filter).\nFour mL of the bacterial suspension was added on top of coated and non-coated test surfaces mounted in Petri dishes. The cells were allowed to adhere for 60 min at 37° C. Non-adherent cells were removed by rinsing the surfaces three times with 4 mL of the buffer solution. […] A 10 μL-aliquot of the mixture was added to the surface and analysed after 10 min incubation in the dark. Microscopic images of adherent cells were analysed from 10 fields of each disc. […]"}, "[4]": {"assay": "Physicochemical properties of delmopinol (pKa, solubility of base)"}, "[5]": {"conditions": "coated versus non-coated surfaces"}},
  "data": [
    {"smiles": "CCCC(CCC)CCCC1COCCN1CCO", "note": "(stereo not shown) [delmopinol, 3-(4-propyl-heptyl)-4-(2-hydroxyethyl) morpholine]", "values": [
      {"measurement": "number of attached cells per mm^2, Mean", "setting": "[1]; stainless steel coated with 2% delmopinol HCl", "value": 418, "unit": "cells per mm^2"},
      {"measurement": "number of attached cells per mm^2, Mean", "setting": "[1]; titanium coated with 2% delmopinol HCl", "value": 207, "unit": "cells per mm^2"},
      {"measurement": "growth of surface-associated bacteria (conclusion)", "setting": "[2]; [5]", "value": "significantly inhibited growth"},
      {"measurement": "Growth after 1 day", "setting": "[2]; stainless steel coated", "value": "no"},
      {"measurement": "Growth after 5 days", "setting": "[2]; stainless steel coated", "value": "no"},
      {"measurement": "Growth after 1 day", "setting": "[2]; titanium coated", "value": "no"},
      {"measurement": "Growth after 5 days", "setting": "[2]; titanium coated", "value": "no"},
      {"measurement": "percentage viable cells, Mean", "setting": "[3]", "value": 9, "unit": "percentage"},
      {"measurement": "viability of adherent cells on delmopinol-coated surfaces (conclusion)", "setting": "[3]; [5]", "value": "significant reduction"},
      {"measurement": "pKa", "setting": "[4]", "value": 7.1}
    ]}
  ]
}
